Tested on: 922993-354-T-J3-PDC complex spheroid viability
Experiment: Anticancer human tumor 922993-354-T-J3-PDC patient-derived endometrial carcinoma cell line growth inhibition [POLQ]
Settings: for IC50: curve of first compound; for viability, T/C: stronger effect = lower value
Experimental: Multicellular complex tumor spheroid response to Polymerase (POL) inhibitors (novobiocin, ART-558, RP6685) in combination with a variety of drugs and investigational agents in selected tumor cell lines
The POL inhibitors (novobiocin, ART-558, and RP6685) were evaluated both individually and in combination with standard of care and investigational anticancer small molecules within a complex spheroid model of solid tumors. . Complex spheroids include a stromal component modeled by human endothelial cells (HUVEC) and fibroblasts modeled by human mesenchymal stem cells (MSCs). The concentration ranges selected for each drug and investigational agent were based upon clinically achievable concentrations if the clinical Cmax of the agent was known.
Compounds. The drugs and investigational agents: novobiocin (NSC847541), ART-558 (NSC835418), RP-6685 (NSC848927), peposertib (NSC802822), ceralasertib (NSC780249), elimusertib (NSC800525), camonsertib (NSC841442), AZD-1390 (NSC803789), olaparib (NSC753686), talazoparib (NSC767125), rucaparib (NSC756644), sotorasib (NSC818433), MRTX-1133 (NSC836407), SN-38 (NSC673596), topotecan (NSC609699), epotoside (NSC141540), doxorubicin (NSC123127), gemcitabine (NSC613327), 5-fluorouracil (NSC19893), paclitaxel (NSC125973), vemurafenib (NSC761431), MSA-2 (NSC828583), SN-011 (NSC837082), adavosertib (NSC754352), prexasertib (NSC758257), carboplatin (NSC241240) and oxaliplatin (NSC266046), were obtained from the National Cancer Institute (NCI) Developmental Therapeutics Program Chemical Repository (21). The FDA-approved anticancer drug set is available from the Developmental Therapeutics Program at https://dtp.cancer.gov/organization/dscb/obtaining/. […] The stock solutions were prepared in dimethyl sulfoxide (DMSO, Sigma-Aldrich, St. Louis, MO, cat. D2650), except for the platinum compounds which were prepared in saline (Quality Biological, Gaithersburg, MD, cat. 114-055-101), at 800-fold the tested concentration and stored at -70 degrees C prior to their use. All drugs and investigational agents were tested over a range starting from a high concentration at or near the clinical Cmax and decreasing in half-log increments. If the clinical Cmax for an agent had not been determined, the highest concentration tested was 10 microM, except for SN-38, which was tested at a high concentration of 1 microM.
Cell Culture. All cells were maintained in an incubator at 37 degrees C and 5% CO2 with 95% humidity. The PDC lines were cultured according to standard operating procedures established by the NCI PDMR (https://pdmr.cancer.gov). Table 3 of the manuscript, lists the cell lines along with the number of the three cell types plated to form the mct-spheroids and media for tumor cell growth. After thawing, all PDC lines, except 997537-175-T-J1-PDC and 415267-285-R-J2-PDC, were cultured in Matrigel-coated flasks prepared with a working solution of 1X Ham's F-12 nutrient mix, without supplementation (Thermo Fisher Scientific, cat. 11765054), 100 U/mL penicillin-streptomycin (Thermo Fisher Scientific, cat. 15140122), and 2.5% Matrigel (Corning Inc., Corning, NY, cat. 354248) for the first three passages. The two PDC lines 997537-175-T-J1-PDC and 415267-285-R-J2-PDC were cultured on uncoated flasks. The 857933-349-R-J2-PDC line was cultured in 6C/Colon 1B media containing advanced DMEM/F-12 (Thermo Fisher Scientific, cat. 12634028), 10 mM HEPES (Thermo Fisher Scientific, cat. 15630080), 1X GlutaMAX supplement (Thermo Fisher Scientific, cat. 35050061), 0.1 mg/mL primocin (InvivoGen, San Diego, CA, cat. ant-pm-2), 10% defined fetal bovine serum, heat inactivated (HyClone Laboratories Inc., Logan, UT, cat. SH30070.03HI), 50% L-WRN conditioned media (ATCC, cat. CRL-3276), 1.25 mM N-Acetyl-L-cysteine (Sigma-Aldrich, cat. A9165), 10 mM nicotinamide (Sigma-Aldrich, cat. N0636), 1X B-27 supplement (Thermo Fisher Scientific, cat. 17504044), 1X N-2 supplement (Thermo Fisher Scientific, cat. […]

[1] = second compound 0.0316 µM, first compound 0.0316 µM
[2] = second compound 0.0316 µM, first compound 0.1 µM
[3] = second compound 0.0316 µM, first compound 0.316 µM
[4] = second compound 0.0316 µM, first compound 1 µM
[5] = second compound 0.0316 µM, first compound 3.16 µM
[6] = second compound 0.0316 µM, first compound 10 µM
[7] = second compound 0.1 µM, first compound 0.0316 µM
[8] = second compound 0.1 µM, first compound 0.1 µM
[9] = second compound 0.1 µM, first compound 0.316 µM
[10] = second compound 0.1 µM, first compound 1 µM
[11] = second compound 0.1 µM, first compound 3.16 µM
[12] = second compound 0.1 µM, first compound 10 µM
[13] = second compound 0.316 µM, first compound 0.0316 µM
[14] = second compound 0.316 µM, first compound 0.1 µM
[15] = second compound 0.316 µM, first compound 0.316 µM
[16] = second compound 0.316 µM, first compound 1 µM
[17] = second compound 0.316 µM, first compound 3.16 µM
[18] = second compound 0.316 µM, first compound 10 µM
[19] = second compound 1 µM, first compound 0.0316 µM
[20] = second compound 1 µM, first compound 0.1 µM
[21] = second compound 1 µM, first compound 0.316 µM
[22] = second compound 1 µM, first compound 1 µM
[23] = second compound 1 µM, first compound 3.16 µM
[24] = second compound 1 µM, first compound 10 µM
[25] = second compound 3.16 µM, first compound 0.0316 µM
[26] = second compound 3.16 µM, first compound 0.1 µM
[27] = second compound 3.16 µM, first compound 0.316 µM
[28] = second compound 3.16 µM, first compound 1 µM
[29] = second compound 3.16 µM, first compound 3.16 µM
[30] = second compound 3.16 µM, first compound 10 µM
[31] = second compound 10 µM, first compound 0.0316 µM
[32] = second compound 10 µM, first compound 0.1 µM
[33] = second compound 10 µM, first compound 0.316 µM
[34] = second compound 10 µM, first compound 1 µM
[35] = second compound 10 µM, first compound 3.16 µM
[36] = second compound 10 µM, first compound 10 µM
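Also: spheroids exposed to the agents for one week.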
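For viability, T/C in this document: 100% = DMSO vehicle control wells.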

SMILES: O=c1[nH]cc(F)c(=O)[nH]1 + Nc1ccc(C#CCN(C(=O)Cc2ncc(C(F)(F)F)cc2C(F)(F)F)c2ccc(F)cc2)nn1
- IC50 (second compound 0.0316 µM): 5.83 µM
- IC50 (second compound 0.1 µM): 5.94 µM
- IC50 (second compound 0.316 µM): 5.66 µM
- IC50 (second compound 1 µM): 5.75 µM
- IC50 (second compound 3.16 µM): 5.48 µM
- IC50 (second compound 10 µM): 5.32 µM
- viability, T/C [1]: 103%
- viability, T/C [2]: 105%
- viability, T/C [3]: 105%
- viability, T/C [4]: 103%
- viability, T/C [5]: 79.9%
- viability, T/C [6]: 23.6%
- viability, T/C [7]: 106%
- viability, T/C [8]: 103%
- viability, T/C [9]: 104%
- viability, T/C [10]: 102%
- viability, T/C [11]: 80.7%
- viability, T/C [12]: 24.6%
- viability, T/C [13]: 104%
- viability, T/C [14]: 104%
- viability, T/C [15]: 104%
- viability, T/C [16]: 99.6%
- viability, T/C [17]: 76.8%
- viability, T/C [18]: 23.8%
- viability, T/C [19]: 103%
- viability, T/C [20]: 98.5%
- viability, T/C [21]: 103%
- viability, T/C [22]: 102%
- viability, T/C [23]: 82.4%
- viability, T/C [24]: 19.8%
- viability, T/C [25]: 99.8%
- viability, T/C [26]: 103%
- viability, T/C [27]: 100%
- viability, T/C [28]: 102%
- viability, T/C [29]: 75.7%
- viability, T/C [30]: 21.9%
- viability, T/C [31]: 98.6%
- viability, T/C [32]: 101%
- viability, T/C [33]: 100%
- viability, T/C [34]: 96.6%
- viability, T/C [35]: 77.4%
- viability, T/C [36]: 17.3%

SMILES: O=C(c1cc(Cc2n[nH]c(=O)c3ccccc23)ccc1F)N1CCN(C(=O)C2CC2)CC1 + Cc1cccc(N(C)C(=O)C2C(O)CCN2c2nc(C)cc(C(F)(F)F)c2C#N)c1
- IC50 (second compound 0.0316 µM): > 10 µM
- IC50 (second compound 0.1 µM): > 10 µM
- IC50 (second compound 0.316 µM): > 10 µM
- IC50 (second compound 1 µM): > 10 µM
- IC50 (second compound 3.16 µM): > 10 µM
- IC50 (second compound 10 µM): > 10 µM
- viability, T/C [1]: 104%
- viability, T/C [2]: 103%
- viability, T/C [3]: 101%
- viability, T/C [4]: 113%
- viability, T/C [5]: 99.2%
- viability, T/C [6]: 92.4%
- viability, T/C [7]: 111%
- viability, T/C [8]: 103%
- viability, T/C [9]: 111%
- viability, T/C [10]: 102%
- viability, T/C [11]: 103%
- viability, T/C [12]: 109%
- viability, T/C [13]: 113%
- viability, T/C [14]: 108%
- viability, T/C [15]: 104%
- viability, T/C [16]: 112%
- viability, T/C [17]: 92.9%
- viability, T/C [18]: 103%
- viability, T/C [19]: 96.4%
- viability, T/C [20]: 108%
- viability, T/C [21]: 106%
- viability, T/C [22]: 107%
- viability, T/C [23]: 99.1%
- viability, T/C [24]: 109%
- viability, T/C [25]: 98.3%
- viability, T/C [26]: 107%
- viability, T/C [27]: 95.3%
- viability, T/C [28]: 94.7%
- viability, T/C [29]: 109%
- viability, T/C [30]: 106%
- viability, T/C [31]: 100%
- viability, T/C [32]: 97.7%
- viability, T/C [33]: 112%
- viability, T/C [34]: 104%
- viability, T/C [35]: 104%
- viability, T/C [36]: 103%

SMILES: C=CC(=O)N1CCN(c2nc(=O)n(-c3c(C)ccnc3C(C)C)c3nc(-c4c(O)cccc4F)c(F)cc23)C(C)C1 (stereo unspecified) + Nc1ccc(C#CCN(C(=O)Cc2ncc(C(F)(F)F)cc2C(F)(F)F)c2ccc(F)cc2)nn1
- IC50 (second compound 0.0316 µM): > 10 µM
- IC50 (second compound 0.1 µM): > 10 µM
- IC50 (second compound 0.316 µM): > 10 µM
- IC50 (second compound 1 µM): > 10 µM
- IC50 (second compound 3.16 µM): > 10 µM
- IC50 (second compound 10 µM): > 10 µM
- viability, T/C [1]: 105%
- viability, T/C [2]: 103%
- viability, T/C [3]: 96.5%
- viability, T/C [4]: 108%
- viability, T/C [5]: 105%
- viability, T/C [6]: 104%
- viability, T/C [7]: 110%
- viability, T/C [8]: 106%
- viability, T/C [9]: 104%
- viability, T/C [10]: 108%
- viability, T/C [11]: 107%
- viability, T/C [12]: 104%
- viability, T/C [13]: 107%
- viability, T/C [14]: 107%
- viability, T/C [15]: 103%
- viability, T/C [16]: 105%
- viability, T/C [17]: 104%
- viability, T/C [18]: 99.3%
- viability, T/C [19]: 107%
- viability, T/C [20]: 101%
- viability, T/C [21]: 99.6%
- viability, T/C [22]: 108%
- viability, T/C [23]: 101%
- viability, T/C [24]: 102%
- viability, T/C [25]: 101%
- viability, T/C [26]: 105%
- viability, T/C [27]: 104%
- viability, T/C [28]: 102%
- viability, T/C [29]: 103%
- viability, T/C [30]: 101%
- viability, T/C [31]: 97.3%
- viability, T/C [32]: 105%
- viability, T/C [33]: 105%
- viability, T/C [34]: 93.6%
- viability, T/C [35]: 101%
- viability, T/C [36]: 98.1%

From PubChem BioAssay AID1963830 (Molecular Pharmacology Branch, DTP, NCI, 2024)
